For eleven molecules, AC50 results are on record in ChEMBL document CHEMBL5291721, “A preclinical secondary pharmacology resource illuminates target-adverse drug reaction associations of marketed drugs” (Nat Commun, 2023).

Each structure is given as a SMILES string.

One assay has as its target Adenosine receptor A2a (Homo sapiens, UniProt P29274).
Assay [1] addresses T1, Alpha-2A adrenergic receptor (Homo sapiens, UniProt P08913).
T1 sequence (P08913 whole entry): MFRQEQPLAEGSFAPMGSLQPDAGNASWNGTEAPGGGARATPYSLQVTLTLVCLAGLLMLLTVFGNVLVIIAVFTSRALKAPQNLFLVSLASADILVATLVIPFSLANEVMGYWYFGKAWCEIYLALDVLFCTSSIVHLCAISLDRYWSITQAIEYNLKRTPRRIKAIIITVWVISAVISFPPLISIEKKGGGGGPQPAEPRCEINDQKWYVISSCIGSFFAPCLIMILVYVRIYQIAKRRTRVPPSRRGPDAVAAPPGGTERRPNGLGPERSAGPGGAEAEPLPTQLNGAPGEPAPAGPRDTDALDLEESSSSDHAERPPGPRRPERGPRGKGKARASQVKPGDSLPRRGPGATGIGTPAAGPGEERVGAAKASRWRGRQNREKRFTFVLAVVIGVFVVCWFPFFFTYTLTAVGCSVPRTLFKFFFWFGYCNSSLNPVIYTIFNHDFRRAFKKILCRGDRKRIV
It is filed as functional, cell-based.

For assay [2], the target named is T2, Muscarinic acetylcholine receptor M2 (Homo sapiens, UniProt P08172).
T2 sequence (P08172 whole entry): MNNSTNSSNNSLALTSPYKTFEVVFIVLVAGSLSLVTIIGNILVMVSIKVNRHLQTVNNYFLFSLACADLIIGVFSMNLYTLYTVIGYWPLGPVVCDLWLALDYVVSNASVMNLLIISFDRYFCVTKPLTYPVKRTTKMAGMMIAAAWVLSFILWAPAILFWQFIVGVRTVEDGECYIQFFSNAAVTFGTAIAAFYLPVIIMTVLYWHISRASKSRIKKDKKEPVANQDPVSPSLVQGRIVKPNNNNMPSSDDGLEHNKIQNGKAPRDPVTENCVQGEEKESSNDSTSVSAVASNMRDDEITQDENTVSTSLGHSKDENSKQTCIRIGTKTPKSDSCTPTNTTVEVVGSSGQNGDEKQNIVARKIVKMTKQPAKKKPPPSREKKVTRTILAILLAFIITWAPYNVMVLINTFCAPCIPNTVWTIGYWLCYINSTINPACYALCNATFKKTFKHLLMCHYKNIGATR
It is filed as functional, cell-based.

Assay [3] has as its target Gamma-aminobutyric acid receptor subunit alpha-1 (Rattus norvegicus, UniProt P62813). It is filed as functional.
The target of assay [4] is Growth hormone secretagogue receptor type 1 (Homo sapiens, UniProt Q92847).
The target in assay [5] is T3, 5-hydroxytryptamine receptor 1A (Homo sapiens, UniProt P08908).
T3 sequence (P08908 whole entry): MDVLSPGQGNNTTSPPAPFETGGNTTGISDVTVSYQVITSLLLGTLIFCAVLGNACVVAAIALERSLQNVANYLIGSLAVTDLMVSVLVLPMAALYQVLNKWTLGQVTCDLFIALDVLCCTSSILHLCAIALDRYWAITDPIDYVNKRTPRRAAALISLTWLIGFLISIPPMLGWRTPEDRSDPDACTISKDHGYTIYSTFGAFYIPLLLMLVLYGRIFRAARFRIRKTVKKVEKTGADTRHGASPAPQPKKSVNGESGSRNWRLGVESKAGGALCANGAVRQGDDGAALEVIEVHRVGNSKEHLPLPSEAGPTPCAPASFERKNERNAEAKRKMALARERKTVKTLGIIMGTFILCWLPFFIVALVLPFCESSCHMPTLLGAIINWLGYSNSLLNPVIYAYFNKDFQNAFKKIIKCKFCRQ
It counts as functional, cell-based.

For assay [6], the target named is T4, 5-hydroxytryptamine receptor 3A (Homo sapiens, UniProt P46098).
T4 sequence (P46098 whole entry): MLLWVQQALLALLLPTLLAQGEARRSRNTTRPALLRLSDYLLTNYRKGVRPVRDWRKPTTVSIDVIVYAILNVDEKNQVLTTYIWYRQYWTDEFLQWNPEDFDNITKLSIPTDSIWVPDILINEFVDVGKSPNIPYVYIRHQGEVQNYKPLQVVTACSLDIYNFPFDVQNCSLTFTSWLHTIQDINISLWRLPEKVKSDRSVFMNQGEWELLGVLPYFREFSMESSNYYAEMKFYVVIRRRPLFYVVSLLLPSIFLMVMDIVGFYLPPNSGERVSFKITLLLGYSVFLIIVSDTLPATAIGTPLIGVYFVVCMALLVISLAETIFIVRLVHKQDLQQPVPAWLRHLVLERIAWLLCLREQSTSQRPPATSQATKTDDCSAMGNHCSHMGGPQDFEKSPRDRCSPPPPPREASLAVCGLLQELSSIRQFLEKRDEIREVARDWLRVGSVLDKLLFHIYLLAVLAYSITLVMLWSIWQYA
It counts as functional.

The target in assay [7] is Voltage-gated inwardly rectifying potassium channel KCNH2 (Homo sapiens, UniProt Q12809). It is filed as functional. The conditions noted are these: read-out: AC50.
Another assay concerns the target Motilin receptor (Homo sapiens, UniProt O43193).
For assay [8], the target named is T5, Prostaglandin G/H synthase 1 (Rattus norvegicus, UniProt Q63921).
T5 sequence (Q63921 whole entry): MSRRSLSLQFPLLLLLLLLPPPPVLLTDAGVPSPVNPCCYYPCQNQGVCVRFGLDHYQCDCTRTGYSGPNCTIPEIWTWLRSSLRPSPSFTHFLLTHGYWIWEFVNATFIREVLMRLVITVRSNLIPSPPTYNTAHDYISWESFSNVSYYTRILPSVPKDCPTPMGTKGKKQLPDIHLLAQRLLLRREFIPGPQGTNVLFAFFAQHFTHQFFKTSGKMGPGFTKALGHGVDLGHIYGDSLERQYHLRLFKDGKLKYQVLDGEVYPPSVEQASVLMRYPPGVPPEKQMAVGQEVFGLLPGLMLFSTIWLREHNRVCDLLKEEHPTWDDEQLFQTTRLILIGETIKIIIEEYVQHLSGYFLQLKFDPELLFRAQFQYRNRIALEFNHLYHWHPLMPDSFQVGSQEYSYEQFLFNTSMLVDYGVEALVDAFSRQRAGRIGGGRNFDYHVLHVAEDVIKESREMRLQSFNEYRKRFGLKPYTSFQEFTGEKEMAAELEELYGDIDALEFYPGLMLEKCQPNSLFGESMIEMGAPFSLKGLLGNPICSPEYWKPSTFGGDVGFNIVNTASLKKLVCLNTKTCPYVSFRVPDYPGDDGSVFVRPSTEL
It counts as functional.

Assay [9] addresses cGMP-inhibited 3',5'-cyclic phosphodiesterase 3A (Homo sapiens, UniProt Q14432). It counts as functional.
Further: assay procedure not described here.

Chain of Gamma-aminobutyric acid receptor subunit alpha-1 (P62813 whole entry): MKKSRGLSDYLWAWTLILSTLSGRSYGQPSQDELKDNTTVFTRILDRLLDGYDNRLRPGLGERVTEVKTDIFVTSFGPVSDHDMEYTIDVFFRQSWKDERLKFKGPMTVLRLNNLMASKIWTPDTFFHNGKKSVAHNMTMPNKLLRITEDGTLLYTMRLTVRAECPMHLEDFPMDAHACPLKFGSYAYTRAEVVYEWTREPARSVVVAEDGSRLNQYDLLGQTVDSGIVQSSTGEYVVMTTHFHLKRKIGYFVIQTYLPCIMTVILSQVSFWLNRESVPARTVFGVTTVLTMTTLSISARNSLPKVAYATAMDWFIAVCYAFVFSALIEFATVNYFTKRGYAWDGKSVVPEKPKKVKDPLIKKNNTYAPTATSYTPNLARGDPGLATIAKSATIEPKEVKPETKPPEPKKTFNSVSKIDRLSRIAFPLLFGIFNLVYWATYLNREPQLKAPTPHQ
Chain of Voltage-gated inwardly rectifying potassium channel KCNH2 (Q12809 whole entry): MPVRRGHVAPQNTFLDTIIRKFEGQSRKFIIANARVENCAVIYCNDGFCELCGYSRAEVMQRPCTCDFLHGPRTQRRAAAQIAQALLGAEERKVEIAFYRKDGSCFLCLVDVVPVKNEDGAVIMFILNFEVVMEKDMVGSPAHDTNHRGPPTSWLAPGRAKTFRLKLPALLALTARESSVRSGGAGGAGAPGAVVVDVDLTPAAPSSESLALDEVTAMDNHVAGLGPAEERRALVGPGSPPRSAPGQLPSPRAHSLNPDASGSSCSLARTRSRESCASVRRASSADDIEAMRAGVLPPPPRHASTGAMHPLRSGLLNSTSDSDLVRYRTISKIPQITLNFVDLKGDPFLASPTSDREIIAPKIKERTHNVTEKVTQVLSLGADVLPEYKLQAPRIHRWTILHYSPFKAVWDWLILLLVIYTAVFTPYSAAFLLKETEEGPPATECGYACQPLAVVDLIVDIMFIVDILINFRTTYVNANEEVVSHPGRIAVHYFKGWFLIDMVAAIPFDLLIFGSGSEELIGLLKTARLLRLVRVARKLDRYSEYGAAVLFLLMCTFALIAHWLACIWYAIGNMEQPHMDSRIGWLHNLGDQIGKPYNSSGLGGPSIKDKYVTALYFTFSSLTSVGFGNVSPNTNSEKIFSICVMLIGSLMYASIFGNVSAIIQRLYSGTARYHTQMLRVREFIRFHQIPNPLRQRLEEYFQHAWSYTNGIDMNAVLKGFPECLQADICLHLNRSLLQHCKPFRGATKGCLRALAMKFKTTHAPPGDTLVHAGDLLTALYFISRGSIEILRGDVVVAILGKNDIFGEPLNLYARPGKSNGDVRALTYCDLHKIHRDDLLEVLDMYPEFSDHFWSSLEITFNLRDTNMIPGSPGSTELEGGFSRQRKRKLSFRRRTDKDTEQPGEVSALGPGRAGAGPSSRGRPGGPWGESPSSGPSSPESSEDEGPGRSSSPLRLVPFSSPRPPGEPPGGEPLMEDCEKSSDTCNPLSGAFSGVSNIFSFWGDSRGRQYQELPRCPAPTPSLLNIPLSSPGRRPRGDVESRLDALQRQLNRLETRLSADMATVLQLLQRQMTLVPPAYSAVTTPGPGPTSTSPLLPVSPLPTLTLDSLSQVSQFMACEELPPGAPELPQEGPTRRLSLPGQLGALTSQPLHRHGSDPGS
Chain of Adenosine receptor A2a (P29274 whole entry): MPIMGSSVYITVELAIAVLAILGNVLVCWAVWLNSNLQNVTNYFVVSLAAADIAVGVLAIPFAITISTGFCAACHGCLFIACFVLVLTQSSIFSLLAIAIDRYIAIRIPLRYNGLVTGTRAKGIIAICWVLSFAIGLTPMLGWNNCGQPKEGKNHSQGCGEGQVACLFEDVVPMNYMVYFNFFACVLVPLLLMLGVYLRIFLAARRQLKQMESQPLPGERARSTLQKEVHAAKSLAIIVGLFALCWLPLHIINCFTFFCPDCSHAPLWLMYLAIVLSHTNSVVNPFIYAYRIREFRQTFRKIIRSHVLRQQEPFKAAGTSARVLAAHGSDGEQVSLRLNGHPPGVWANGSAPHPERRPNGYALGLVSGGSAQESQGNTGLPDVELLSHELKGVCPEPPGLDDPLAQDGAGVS
Chain of Motilin receptor (O43193 whole entry): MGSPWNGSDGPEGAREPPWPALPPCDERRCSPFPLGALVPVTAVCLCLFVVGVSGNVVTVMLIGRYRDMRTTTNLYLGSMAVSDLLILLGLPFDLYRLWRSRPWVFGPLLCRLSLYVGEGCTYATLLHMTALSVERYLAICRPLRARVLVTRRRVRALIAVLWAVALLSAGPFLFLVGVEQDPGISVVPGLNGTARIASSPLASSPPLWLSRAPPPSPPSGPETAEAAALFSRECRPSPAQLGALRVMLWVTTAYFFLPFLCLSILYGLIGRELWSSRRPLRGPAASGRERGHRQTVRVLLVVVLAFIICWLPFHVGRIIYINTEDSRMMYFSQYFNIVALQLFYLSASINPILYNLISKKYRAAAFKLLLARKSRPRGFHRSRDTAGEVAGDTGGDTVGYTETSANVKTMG
Chain of cGMP-inhibited 3',5'-cyclic phosphodiesterase 3A (Q14432 whole entry): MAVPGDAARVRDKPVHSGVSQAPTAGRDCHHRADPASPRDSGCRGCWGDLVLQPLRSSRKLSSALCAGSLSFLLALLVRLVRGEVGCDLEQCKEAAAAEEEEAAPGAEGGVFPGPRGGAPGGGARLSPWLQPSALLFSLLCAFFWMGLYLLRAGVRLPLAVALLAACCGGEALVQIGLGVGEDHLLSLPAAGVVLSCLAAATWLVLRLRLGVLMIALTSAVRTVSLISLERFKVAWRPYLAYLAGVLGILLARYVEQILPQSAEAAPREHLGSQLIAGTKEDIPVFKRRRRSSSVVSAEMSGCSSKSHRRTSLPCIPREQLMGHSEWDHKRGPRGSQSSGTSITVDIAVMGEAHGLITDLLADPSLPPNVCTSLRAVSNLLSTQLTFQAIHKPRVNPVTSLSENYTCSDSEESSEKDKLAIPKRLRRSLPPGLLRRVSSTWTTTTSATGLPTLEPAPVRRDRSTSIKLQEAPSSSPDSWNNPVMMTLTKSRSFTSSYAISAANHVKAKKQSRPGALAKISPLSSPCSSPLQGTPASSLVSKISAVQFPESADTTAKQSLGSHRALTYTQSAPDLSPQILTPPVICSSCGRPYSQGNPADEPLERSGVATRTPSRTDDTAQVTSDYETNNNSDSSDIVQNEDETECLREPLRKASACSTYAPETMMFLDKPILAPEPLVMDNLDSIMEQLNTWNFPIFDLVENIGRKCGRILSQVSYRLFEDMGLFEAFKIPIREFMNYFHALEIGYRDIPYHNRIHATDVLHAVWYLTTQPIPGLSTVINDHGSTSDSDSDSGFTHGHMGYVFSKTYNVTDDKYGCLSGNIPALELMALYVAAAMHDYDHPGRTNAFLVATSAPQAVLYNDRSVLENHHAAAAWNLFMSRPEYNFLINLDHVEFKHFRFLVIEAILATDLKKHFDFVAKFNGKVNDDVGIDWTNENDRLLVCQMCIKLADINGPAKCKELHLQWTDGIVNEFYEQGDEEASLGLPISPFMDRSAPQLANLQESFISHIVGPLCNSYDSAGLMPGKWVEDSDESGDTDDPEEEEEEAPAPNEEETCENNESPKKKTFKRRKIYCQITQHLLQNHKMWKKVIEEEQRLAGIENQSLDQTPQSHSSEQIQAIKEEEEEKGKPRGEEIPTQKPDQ
Chain of Growth hormone secretagogue receptor type 1 (Q92847 whole entry): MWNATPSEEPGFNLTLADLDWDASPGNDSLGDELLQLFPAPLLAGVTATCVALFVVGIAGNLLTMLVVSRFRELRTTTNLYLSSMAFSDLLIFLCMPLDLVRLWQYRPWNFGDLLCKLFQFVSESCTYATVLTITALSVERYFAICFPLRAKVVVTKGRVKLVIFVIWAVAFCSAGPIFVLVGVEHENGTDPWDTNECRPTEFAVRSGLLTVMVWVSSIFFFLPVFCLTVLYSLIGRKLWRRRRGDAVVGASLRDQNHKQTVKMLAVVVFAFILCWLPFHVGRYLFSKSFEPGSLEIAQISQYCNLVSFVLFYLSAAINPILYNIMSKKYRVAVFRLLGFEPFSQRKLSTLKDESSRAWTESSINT

For `COc1ccc(CC(C)(C)NC[C@H](O)c2cc(O)cc3c2OCC(=O)N3)cc1` [OLODATEROL], the concentration at half-maximal activity (AC50) is over 30 µM at Adenosine receptor A2a; 10 µM in [1]; over 30 µM in assay [2]; over 30 µM in assay [3]; over 30 µM in assay [4]; over 30 µM in assay [5]. Moreover, the AC50 in assay [6] was over 30 µM; in [7], 6.3 µM; on Motilin receptor, over 30 µM; in assay [8], 17.5 µM; in [9], over 30 µM.

With `c1cnc(N2CCN(Cc3ccc4c(c3)OCO4)CC2)nc1` [PIRIBEDIL], the AC50 at Adenosine receptor A2a was over 30 µM; in assay [1] it was 0.059 µM; in assay [2], over 30 µM; in [3] it was over 30 µM; in assay [4], 30 µM; in [5] it was over 30 µM. The AC50 in assay [6] is over 30 µM; in assay [7], 19 µM; at Motilin receptor it was over 30 µM; in [8], over 30 µM; in assay [9] it was over 30 µM.

`COCCCN1CCC(NC(=O)c2cc(Cl)c(N)c3c2OCC3)CC1` [PRUCALOPRIDE]: the concentration at half-maximal activity (AC50) (at Adenosine receptor A2a; in assay [1]; in [2]; in assay [3]; in [4]; in [5]) was over 30 µM throughout. For the same molecule, the AC50 in [6] was 28 µM; in assay [7], over 30 µM; at Motilin receptor, over 30 µM; in assay [8], over 30 µM; in [9], over 30 µM.

As for `CO[C@H]1C[C@@H]2CC[C@@H](C)[C@@](O)(O2)C(=O)C(=O)N2CCCC[C@H]2C(=O)O[C@H]([C@H](C)C[C@@H]2CC[C@@H](O)[C@H](OC)C2)CC(=O)[C@H](C)/C=C(\C)[C@@H](O)[C@@H](OC)C(=O)[C@H](C)C[C@H](C)/C=C/C=C/C=C/1C` [SIROLIMUS], the concentration at half-maximal activity (AC50) on Adenosine receptor A2a is over 30 µM; in assay [1], over 10 µM; in assay [2], over 10 µM; in assay [3] it was over 10 µM; in assay [4], over 30 µM; in assay [5], over 10 µM. Besides, the AC50 in assay [6] was over 30 µM; in assay [7] it was over 30 µM; on Motilin receptor it was over 10 µM; in assay [8], over 30 µM; in assay [9], over 30 µM.

Regarding `Cc1cn([C@H]2C=C[C@@H](CO)O2)c(=O)[nH]c1=O` [STAVUDINE], the AC50 on Adenosine receptor A2a is over 30 µM; in assay [1], over 10 µM; in [2] it was over 10 µM; in assay [3] it was over 10 µM; in assay [4], over 30 µM; in assay [5], over 10 µM. Moreover, the AC50 in [6] is over 10 µM; in assay [7], over 30 µM; on Motilin receptor, over 10 µM; in [8], over 30 µM; in assay [9], over 30 µM.

On to `Cn1nnc2c(C(N)=O)ncn2c1=O` [TEMOZOLOMIDE], for which the AC50 (on Adenosine receptor A2a; in assay [1]; in assay [2]; in assay [3]; in assay [4]; in assay [5]) was over 30 µM each time. Further, the AC50 (in assay [6]; in [7]; on Motilin receptor; in assay [8]; in assay [9]) was over 30 µM throughout.

Turning to `O=C(O[C@H]1C[C@H]2CC[C@@H](C1)[N+]21CCCC1)C(O)(c1ccccc1)c1ccccc1` [TROSPIUM], the concentration at half-maximal activity (AC50) (at Adenosine receptor A2a; in assay [1]; in assay [2]; in [3]; in assay [4]; in assay [5]) was over 30 µM throughout. The AC50 was over 30 µM in assay [6]; 0.63 µM in assay [7]; over 30 µM at Motilin receptor; over 30 µM in assay [8]; over 30 µM in assay [9].

`N[C@@H]1[C@H]2CN(c3nc4c(cc3F)c(=O)c(C(=O)O)cn4-c3ccc(F)cc3F)C[C@@H]12` [TROVAFLOXACIN]: the AC50 (on Adenosine receptor A2a; in assay [1]; in assay [2]; in [3]; in assay [4]; in assay [5]) was over 30 µM each time. In addition, the concentration at half-maximal activity (AC50) (in assay [6]; in [7]; on Motilin receptor; in [8]; in assay [9]) was over 30 µM in each case.

For `Nc1ccn([C@H]2CC[C@@H](CO)O2)c(=O)n1` [ZALCITABINE], the AC50 (on Adenosine receptor A2a; in [1]; in assay [2]; in [3]; in assay [4]; in [5]) was over 10 µM throughout. Also, the AC50 in assay [6] is over 30 µM; in assay [7], over 30 µM; on Motilin receptor, over 10 µM; in [8], over 10 µM; in assay [9], over 30 µM.

With `Cc1cn([C@H]2C[C@H](N=[N+]=[N-])[C@@H](CO)O2)c(=O)[nH]c1=O` [ZIDOVUDINE], the concentration at half-maximal activity (AC50) at Adenosine receptor A2a is over 30 µM; in [1] it was over 10 µM; in assay [2], over 10 µM; in [3] it was over 10 µM; in assay [4], over 30 µM; in [5] it was over 10 µM. Moreover, the AC50 in assay [6] is over 30 µM; in [7], over 30 µM; at Motilin receptor, over 10 µM; in assay [8] it was over 30 µM; in assay [9], over 30 µM.

Consider `NS(=O)(=O)Cc1noc2ccccc12` [ZONISAMIDE], for which the AC50 (on Adenosine receptor A2a; in assay [1]; in [2]; in assay [3]; in assay [4]; in assay [5]) was over 10 µM in each case. In addition, the AC50 in assay [6] was over 30 µM; in [7], over 30 µM; at Motilin receptor, over 10 µM; in [8], over 10 µM; in assay [9] it was over 30 µM.

The term AC50 denotes the concentration at which the activity in the assay is half-maximal.
